The source of these data is patent publication US8541449B2, “Substituted isoquinolines and isoquinolinones as Rho kinase inhibitors” (Sanofi, priority 2008, dated 2013).

Where only a bound is given, the exact number is not on record here.

Common to all, as to type: biochemical
Experiment [1] deals with T1, human recombinant ROCK II (Homo sapiens, UniProt O75116).
T1 construct: N-terminal His6-tagged recombinant human ROCK-II residues 11-552; His6 (N); purchased Millipore GmbH, Schwalbach, Germany
The experiment in a line: Determination of Rho kinase inhibition (Caliper peptide phosphorylation assay). The following applies: 60 min at 32° C., negative decadal logarithm of the IC50. How it is done:
Determination of Rho Kinase Inhibition
To measure Rho-kinase inhibition, IC50 values were determined according to the following protocol:
Active human recombinant ROCK II (N-terminal His6-tagged recombinant human ROCK-II residues 11-552) was purchased from Millipore GmbH, Schwalbach, Germany. The peptide substrate, Fluorescein-[…]-COOH, was obtained from JPT Peptide Technologies, Berlin, Germany. Adenosine-5′-triphosphate (ATP), bovine serum albumine (BSA), dimethylsulphoxide (DMSO), 4-(2-Hydroxyethyl)piperazine-1-ethanesulfonic acid (Hepes), Brij-35, dithiothreitol (DTT) and Pluronic F-68 were purchased from Sigma-Aldrich, Munich, Germany. Tris(hydroxymethyl)-aminomethane (Tris), magnesium chloride, NaOH, 1M HCl and EDTA were obtained from Merck Biosciences, Darmstadt, Germany. “Complete” protease inhibitor was from Roche Diagnostics, Mannheim, Germany.
(§1) Test compounds were diluted to the appropriate concentrations in buffer 1 (25 mM Tris-HCl, pH 7.4, 5 mM MgCl2, 2 mM DTT, 0.02% (w/v) BSA, 0.01% Pluronic F-68 and 3% DMSO). The ROCK II enzyme was diluted to a concentration of 100 ng/mL in buffer 2 (25 mM Tris-HCl, pH 7.4, 5 mM MgCl2, 2 mM DTT and 0.02% (w/v) BSA). The peptide substrate and ATP were diluted to concentrations of 3 μM and 120 μM, respectively, in the buffer 2. Two μl of the compound solution were mixed with 2 μl of the diluted enzyme in a 384-well small volume microtiter plate (Greiner, Bio-One, Frickenhausen, Germany), and the kinase reaction was initiated by addition of 2 μl of the solution containing peptide substrate and ATP. After 60 min incubation at 32° C., the reaction was stopped by addition of 20 μl of a solution containing 100 mM Hepes-NaOH, pH 7.4, 0.015% (v/v) Brij-35, 45 mM EDTA and 0.227% chip coating reagent 1 (Caliper Lifescience Inc, Hopkinton, Mass.). Phosphorylation of the substrate peptide was then detected on a Caliper 3000 instrument essentially as described by Pommereau et al (J. Biomol. Screening 9(5), 409-416, 2004). Separation conditions were as follows: Pressure −1.3 psi, upstream voltage −1562 V, downstream voltage −500 V, sample sip time 200 ms. Positive controls (buffer 1 instead of compound) and negative controls (buffer 1 instead of compound and buffer 2 instead of ROCK II) were run in parallel on each plate.
The following products/compounds were tested in said assay by using the respective form (salt or free base) obtained as in the examples described above and the following activities were measured

The target of experiment [2] is T2, recombinant human PKG1-beta (Homo sapiens, UniProt Q13976).
T2 construct: Active recombinant human PKG1-beta (full-length, with N-terminal His-tag); His-tag (N); purchased Millipore GmbH, Schwalbach, Germany
T2 sequence (Q13976 1-686 isoform Q13976-2): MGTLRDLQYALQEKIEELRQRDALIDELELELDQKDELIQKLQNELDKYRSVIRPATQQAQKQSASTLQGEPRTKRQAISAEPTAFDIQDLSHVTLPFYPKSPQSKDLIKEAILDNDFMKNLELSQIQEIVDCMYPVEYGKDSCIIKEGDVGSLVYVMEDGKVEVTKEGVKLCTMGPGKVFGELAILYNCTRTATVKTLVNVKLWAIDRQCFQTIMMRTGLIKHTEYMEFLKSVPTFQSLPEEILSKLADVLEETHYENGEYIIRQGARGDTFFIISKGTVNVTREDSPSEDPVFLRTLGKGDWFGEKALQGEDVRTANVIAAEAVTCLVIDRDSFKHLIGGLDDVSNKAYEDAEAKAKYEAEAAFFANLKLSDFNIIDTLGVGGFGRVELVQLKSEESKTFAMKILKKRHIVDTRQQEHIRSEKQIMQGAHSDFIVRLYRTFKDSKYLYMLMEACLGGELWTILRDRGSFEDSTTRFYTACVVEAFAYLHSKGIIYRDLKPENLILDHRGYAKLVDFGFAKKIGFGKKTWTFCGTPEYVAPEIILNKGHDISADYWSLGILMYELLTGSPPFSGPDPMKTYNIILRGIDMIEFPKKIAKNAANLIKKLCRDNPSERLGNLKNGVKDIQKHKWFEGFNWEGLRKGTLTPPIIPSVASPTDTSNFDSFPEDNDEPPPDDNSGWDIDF
The experiment can be described thus: Determination of Protein Kinase G inhibition (Caliper peptide phosphorylation assay). The conditions noted are these: recombinant human PKG1-beta versus ROCK II. As to the method:
(§2) Determination of Protein Kinase A and Protein Kinase G Inhibition
(§3) To measure PKA and PKG1-beta inhibition, IC50 values were determined according to the following protocol:
(§4) Active recombinant human PKG1-beta (full-length, with N-terminal His-tag) was purchased from Millipore GmbH, Schwalbach, Germany. Active recombinant human PKA (residues 1-351, N-terminal His-tag) was obtained from Invitrogen, Karlsruhe, Germany. The peptide substrate, Fluorescein-[…]-COOH, was obtained from JPT Peptide Technologies, Berlin, Germany. Adenosine-5′-triphosphate (ATP), bovine serum albumine (BSA), dimethylsulphoxide (DMSO), 4-(2-Hydroxyethyl)piperazine-1-ethanesulfonic acid (Hepes), Brij-35, dithiothreitol (DTT) and Pluronic F-68 were purchased from Sigma-Aldrich, Munich, Germany. Tris(hydroxymethyl)-aminomethane (Tris), magnesium chloride, NaOH, 1M HCl and EDTA were obtained from Merck Biosciences, Darmstadt, Germany. “Complete” protease inhibitor was from Roche Diagnostics, Mannheim, Germany.
as §1, with “PKG1-beta and PKA were” for “The ROCK II enzyme was”, “concentrations” for “a concentration”, “150 ng/ml and 30 ng/ml, respectively,” for “100 ng/mL”, “2.” for “2 (25 mM Tris-HCl, pH 7.4, 5 mM MgCl2, 2 mM DTT and 0.02% (w/v) BSA).”, “kinase solution)” for “ROCK II)”, “plate. The following products/compounds were tested in said assay by using the respective form (salt or free base) obtained as in the examples described above and the following activities were measured.” for “plate.”

The target of a further experiment is T3, recombinant human PKA (Homo sapiens, UniProt P17612).
T3 construct: Active recombinant human PKA (residues 1-351, N-terminal His-tag); His-tag (N); purchased Invitrogen, Karlsruhe, Germany
The experiment in a line: Determination of Protein Kinase A inhibition (Caliper peptide phosphorylation assay). The following applies: recombinant human PKA versus ROCK II. How it is done: as §2, §3, §4
as §1, with “PKG1-beta and PKA were” for “The ROCK II enzyme was”, “concentrations” for “a concentration”, “150 ng/ml and 30 ng/ml, respectively,” for “100 ng/mL”, “2.” for “2 (25 mM Tris-HCl, pH 7.4, 5 mM MgCl2, 2 mM DTT and 0.02% (w/v) BSA).”, “kinase solution)” for “ROCK II)”, “plate. The following products/compounds were tested in said assay by using the respective form (salt or free base) obtained as in the examples described above and the following activities were measured.” for “plate.”

T1 sequence (O75116 11-552): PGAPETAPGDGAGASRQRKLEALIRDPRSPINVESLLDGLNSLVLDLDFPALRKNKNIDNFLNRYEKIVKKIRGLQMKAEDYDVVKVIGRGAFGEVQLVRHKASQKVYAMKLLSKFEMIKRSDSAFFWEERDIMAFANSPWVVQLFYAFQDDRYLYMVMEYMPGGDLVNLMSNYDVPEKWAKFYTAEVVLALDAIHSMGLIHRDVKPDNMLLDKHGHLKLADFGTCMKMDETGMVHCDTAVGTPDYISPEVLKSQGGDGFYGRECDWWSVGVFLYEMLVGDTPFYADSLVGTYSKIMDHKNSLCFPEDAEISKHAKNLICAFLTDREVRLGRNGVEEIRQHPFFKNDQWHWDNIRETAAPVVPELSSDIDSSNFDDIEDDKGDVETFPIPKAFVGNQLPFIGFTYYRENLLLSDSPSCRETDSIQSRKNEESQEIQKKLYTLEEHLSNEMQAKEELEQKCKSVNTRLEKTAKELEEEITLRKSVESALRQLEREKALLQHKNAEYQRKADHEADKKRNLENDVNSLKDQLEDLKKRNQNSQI

Take `CCC(N)[C@]1(c2cccc(OC)c2)CC[C@@H](Oc2cc3cc[nH]c(=O)c3cc2Cl)CC1` (stereo partly drawn) [Example 17, trans-6-[4-(1-Amino-propyl)-4-(3-methoxy-phenyl)-cyclohexyloxy]-7-chloro-2H-iso quinolin-1-one]: the pIC50 result in experiment [1] was “++++++ (7.0≦pIC50<8.0)”. Also, the “Selectivity against PKG” value in experiment [2] is given as >100. In addition, at recombinant human PKA, the “Selectivity against PKA” value is reported as >300.
Turning to `CCC(N)[C@]1(c2ccc(Br)cc2)CC[C@H](Oc2cc3cc[nH]c(=O)c3cc2Cl)CC1` (stereo partly drawn) [Example 6, cis-6-[4-(1-Amin-propyl)-4-(4-bromo-phenyl)-cyclohexyloxy]-7-chloro-2H-isoquinolin-1-one], the pIC50 entry in experiment [1] is “+++++++ (8.0≦pIC50)”. Also, the “Selectivity against PKG” value in experiment [2] was >300. For the same molecule, the “Selectivity against PKA” value at recombinant human PKA is >1000.
With `CC(N)(C1CCC(Oc2cc3cc[nH]c(=O)c3cc2Cl)CC1)C1CC1` (single isomer, unassigned) [Example 120, 6-{4-[1-Amino-1-cyclopropyl-ethyl]-cyclohexyloxy}-7-chloro-2H-isoquinolin-1-one], the IC50 in experiment [1] is 100 to 1000 nM. The “Selectivity against PKG” value in experiment [2] is reported as >10. On recombinant human PKA, the “Selectivity against PKA” value is given as >100.
Take `CCC(N)[C@]1(c2ccc(F)cc2F)CC[C@H](Oc2cc3cc[nH]c(=O)c3cc2Cl)CC1` (stereo partly drawn) [Example 56, cis-6-[4-(1-Amino-propyl)-4-(2,4-difluoro-phenyl)-cyclohexyloxy]-7-chloro-2H-isoquinolin-1-one]: in experiment [1], the pIC50 entry is given as “+++++++ (8.0≦pIC50)”. The “Selectivity against PKG” value in experiment [2] was >300. Moreover, the “Selectivity against PKA” value at recombinant human PKA is recorded as >1000.
Turning to `COc1ccc(C(N)[C@H]2CC[C@@H](Oc3cc4cc[nH]c(=O)c4cc3Cl)CC2)cc1` (single isomer, unassigned) [Example 36, 6-{4-[Amino-(4-methoxy-phenyl)-methyl]-cyclohexyloxy}-7-chloro-2H-isoquinolin-1-one], in experiment [1], the IC50 was 10 to 100 nM. Also, the “Selectivity against PKG” value in experiment [2] is reported as >300. Moreover, the “Selectivity against PKA” value on recombinant human PKA is given as >300.
Turning to `CC(N)[C@]1(c2ccc(F)cc2)CC[C@@H](Oc2cc3cc[nH]c(=O)c3cc2Cl)CC1` (stereo partly drawn) [Example 13, trans-6-[4-(1-Amino-ethyl)-4-(4-fluoro-phenyl)-cyclohexyloxy]-7-chloro-2H-isoquinolin-1-one], the pIC50 result in experiment [1] is given as “++++++ (7.0≦pIC50<8.0)”. Further, the “Selectivity against PKG” value in experiment [2] is >100. Moreover, the “Selectivity against PKA” value on recombinant human PKA was >300.
As for `CCOc1cccc([C@]2(C(N)CC)CC[C@@H](Oc3cc4cc[nH]c(=O)c4cc3Cl)CC2)c1` (stereo partly drawn) [Example 63, cis-6-[4-(1-Amino-propyl)-4-(3-ethoxy-phenyl)-cyclohexyloxy]-7-chloro-2H-isoquinolin-1-one], the pIC50 entry in experiment [1] was “+++++++ (8.0≦pIC50)”. Moreover, in experiment [2], the “Selectivity against PKG” value is listed as >300. Besides, the “Selectivity against PKA” value at recombinant human PKA is reported as >1000.
Regarding `CCC(N)C1CCC(Oc2cc3cc[nH]c(=O)c3cc2Cl)CC1` (single isomer, unassigned) [Example 129, 6-[4-(1-Amino-propyl)-cyclohexyoxy]-7-chloro-2H-isoquinolin-1-one], the concentration for half-maximal inhibition (IC50) in experiment [1] was 10 to 100 nM. In addition, the “Selectivity against PKG” value in experiment [2] is on record as >10. Also, the “Selectivity against PKA” value at recombinant human PKA is given as >100.
Turning to `Cc1ccc(C(N)C2CCC(Oc3cc4cc[nH]c(=O)c4cc3Cl)CC2)cc1` (single isomer, unassigned) [Example 39, 6-[4-(Amino-p-tolyl-methyl)-cyclohexyloxy]-7-chloro-2H-isoquinolin-1-one], the IC50 in experiment [1] is 10 to 100 nM. For the same molecule, in experiment [2], the “Selectivity against PKG” value is reported as >100. For the same molecule, the “Selectivity against PKA” value on recombinant human PKA is >100.
On to `CCC(N)[C@]1(c2ccccc2)CC[C@H](Oc2cc3cc[nH]c(=O)c3cc2F)CC1` (stereo partly drawn) [Example 87, cis-6-[4-(1-Amino-propyl)-4-phenyl-cyclohexyloxy]-7-fluoro-2H-iso quinolin-1-one], for which the pIC50 entry in experiment [1] is on record as “++++++ (7.0≦pIC50<8.0)”. Also, the “Selectivity against PKG” value in experiment [2] was >100. Besides, at recombinant human PKA, the “Selectivity against PKA” value was >1000.
With `CCC(N)[C@]1(c2cc(F)cc(F)c2)CC[C@H](Oc2cc3cc[nH]c(=O)c3cc2Cl)CC1` (stereo partly drawn) [Example 58, cis-6-[4-(1-Amino-propyl)-4-(3,5-difluoro-phenyl)-cyclohexyloxy]-7-chloro-2H-isoquinolin-1-one], the pIC50 result in experiment [1] was “+++++++ (8.0≦pIC50)”. In experiment [2], the “Selectivity against PKG” value is given as >100. For the same molecule, the “Selectivity against PKA” value at recombinant human PKA is on record as >1000.
Consider `CCC(N)[C@]1(c2ccc(F)cc2)CC[C@H](Oc2cc3cc[nH]c(=O)c3cc2Cl)CC1` (stereo partly drawn) [Example 1, cis-6-[4-(1-Amino-propyl)-4-(4-fluoro-phenyl)-cyclohexyloxy]-7-chloro-2H-isoquinolin-1-one], for which the pIC50 result in experiment [1] is “+++++++ (8.0≦pIC50)”. The “Selectivity against PKG” value in experiment [2] is reported as >1000. Besides, the “Selectivity against PKA” value on recombinant human PKA is >1000.
